{"source": "patent US8741644B2", "about": "“Method for producing mast cells from pluripotent stem cells” (Kyoto University, priority 2009, dated 2014)", "tested_on": "hESC-MCs", "assay": "Activation of MCs: histamine release from hESC-MCs upon stimulation (ELISA histamine kit)", "type": "cell-based, human", "details": "hESC (H1)-derived mast cells, 15 min at 37° C., FIG. 13", "procedure": "For stimulation, substance P (Sigma), compound 48/80 or control medium was added to a 25 μl cell suspension (4×10^5 MCs/ml) in 96-well plates, and incubated for further 15 min at 37° C. The reaction was stopped by adding 200 μl ice-cold buffer. The cells were separated by centrifugation at 300×g for 7 min at 4° C., and the supernatant was collected. The cell pellet was resuspended in […] containing 0.5% Triton-X and 0.1% bovine serum albumin (BSA), quick frozen in liquid nitrogen and thawed 4 times. After centrifugation at 12,000×g for 15 min at 4° C., the soluble extract was collected. Histamine levels were measured by an ELISA histamine kit (Beckman Coulter)", "note": "Where no end group is shown, it is not given here."}
{"substance": "substance P (RPKPQQFFGLM; ends and bridges not checked; UniProt P20366 58-68, looked up) [neuropeptide used as mast cell stimulant (Sigma)]", "values": [{"measurement": "degranulation to release histamine", "result": "dose-dependent degranulation"}]}
